What was measured:
E. coli W3110 [1] = assay: Scanning electron microscopy of cell morphology; format: cell-based, Escherichia coli; details: E. coli W3110 logarithmic-phase, 4 h treatment at 2 μM and 5 μM (Fig. 5B, S11)
Experimental: Thaw the previously preserved E. coli W3110 cells from the -80 °C freezer. […]
Scanning electron microscopy
Thaw the previously preserved E. coli W3110 cells from the -80°C freezer. Scrape a small amount and inoculate it into 1 mL of LB liquid medium. Incubate overnight in a 37°C shaker. The next day, inoculate the strain into fresh LB liquid medium at a 1:100 ratio and incubate at 37°C until the OD600 reaches approximately 0.47 to 0.53. Take 500 μL of E. coli W3110 cells, centrifuge for 10 min at 4000 rpm, and discard the supernatant. Resuspend the cells in 500 μL of PBS, then centrifuge again at 4000 rpm for 10 min and discard the supernatant. Dissolve various macrocyclic peptides in DMSO and dilute to the required concentration. Resuspend the untreated group in 500 μL of PBS.
For the peptide treatment group, resuspend in 495 μL of ddH2O, add 5 μL of 0.2 mM or 0.5 mM peptides, mix well, and let react for 4 h.
After the treament, spot 4 μL of the sample on plates. Perform the first ten-fold dilution and mix, then continue with the second to fifth ten-fold dilutions. Incubate the plates inverted overnight in a 37°C incubator. Scan and count the colonies. For the remaining 492 μL, centrifuge at 6100g for 10 min, discard the supernatant, add 500 μL of ddH2O, and let it stand for 15 min. Centrifuge again at 6100g for 10 min, discard the supernatant, and add 500 μL of ddH2O containing 2.5% glutaraldehyde. Resuspend and fix the cells overnight at 4°C. Centrifuge at 6100g for 10 min, remove the supernatant, and wash twice with ddH2O, letting it stand for 15 min each time, followed by centrifugation at 6100g for 10 min. Discard the supernatant. Dehydrate the sample with ethanol at concentration gradients of 30%, 60%, and 90%, without resuspension, centrifuging at 6100g for […]
10 min and discarding the supernatant after each step. Finally, use 100% ethanol, rest for 15 min, centrifuge at 6100g for 10 min, discard the supernatant, and repeat with 100% ethanol, leaving about 10 μL. Then the critical point was dried and sprayed with gold, and the images were observed by […]
Prediction of binding sites between peptides and the BAM complex
Firstly, the fpocket algorithm was used, a rapid method for pocket prediction based on the three-dimensional structure of BAM complex (PDB ID: 5AYW). This method establishes a grid surrounding the protein, positioning alpha spheres on grid points devoid of spatial conflicts with protein atoms, subsequently utilizing a clustering algorithm to ascertain whether these regions constitute potential binding pockets. Alpha spheres were designated with radii ranging from 3.4Å to 6.2Å, with a prerequisite of at least 15 alpha spheres for a region to be considered a pocket. […]
PepNN evaluated each amino acid for its potentiality as a peptide binding site. […]

E. coli W3110 [2] = assay: Evaluation of R9-conjugated macrocyclic peptides against E. coli W3110 (survival, CFU); format: cell-based, Escherichia coli; details: E. coli W3110 logarithmic-phase, 5 μM peptide, 15 min treatment (Fig. 4B)
Experimental: the samples were centrifuged at 1000 rpm for 10 min，and take pictures of the pellet after centrifugation. Then, the supernatant from each sample was absorbed into the 96-well plate to ensure that there could be no air bubbles in each hole. The absorbance of the supernatant at the wavelength of 545 nm was measured by microplate reader, and the percentage of hemolysis of each […]
Percentage of hemolysis = 100%OD-OD×
Evaluation of R9-conjugated macrocyclic peptides against Gram-negative pathogens Remove the previously preserved E. coli W3110 cells from the -80 °C refrigerator, scrape a little, inoculate it into 1 mL LB liquid medium, and culture overnight in 37 °C shaker. The strain was inoculated into fresh LB liquid medium according to the inoculation ratio of 1:100 and incubated at 37 ℃ until the OD600 reached about 0.47~0.53. First, 100 μL E. coli W3110 cells was taken, then centrifuged for 2 minutes at 13000 rpm, then the supernatant was absorbed and discarded, and then the cells were resuspended with 100 μL PBS solution, followed by 13000 rpm centrifugation for two minutes. Various fluorinated macrocyclic peptides conjugated with R9 were dissolved in DMSO and then diluted to the required concentration. […] Finally, the plate was scanned and counted. […]

Substance	morphological changes by scanning electron microscopy (E. coli W3110 [1])	eradication of E. coli bacteria (E. coli W3110 [2])
Ac-(4-F-DPhe)IWHKSLT(4-F-DPhe)NYLHTCGS(Acp)RRRRRRRRR-NH2 (sidechain bridge or staple) [BAM-f2-R9, BAM-f2 conjugated with cell-penetrating peptide R9]	severe damage in the cell shape and even lysis	over 99.9%
Ac-(4-F-DPhe)KHFIY(4-F-β-Phe)YRSPICGS(Acp)RRRRRRRRR-NH2 (sidechain bridge or staple) [BAM-β3-R9, BAM-β3 conjugated with cell-penetrating peptide R9]	severe damage in the cell shape and even lysis	over 99.9%

From PMC11310889, “Ribosomal translation of fluorinated non-canonical amino acids for de novo biologically active fluorinated macrocyclic peptides” (Chemical Science, 2024)
